Values joined by “and” are separate entries in the source; they are usually repeats but may differ in a detail not shown here. Equal entries are not always repeated.

The test system of this assay is BDF1 mice, Adenocarcinoma 755 s.c., tumor weight T/C. Kind of assay: NCI In Vivo Anticancer Drug Screen. Data for tumor model Adenocarcinoma 755 (subcutaneous) in B6D2F1 (BDF1) mice. To be noted: endpoint: mean tumor weight, higher = larger tumour. On the procedure: The antitumor activity of compounds was measured in mice bearing transplantable tumors. Survival or tumor size were measured and the results are expressed as the measurement made in the treated group (T) divided by the measurement made in the vehicle treated control group (C). The tumor model used in this assay is Adenocarcinoma 755 (subcutaneous) in B6D2F1 (BDF1) mice

Turning to `CC(=O)[C@H]1CC[C@H]2[C@@H]3CCC4=CC(=O)[C@H](C)C[C@]4(C)[C@@]3(F)C(=O)C[C@]12C`, the T/C (as a rule, the result in the treated group divided by that in the control group, in per cent) was 120 % of control (dose: 1.5 mg/kg/injection, schedule: Q01DX011 (sc), vehicle: steriod suspending solution); 77 % of control (dose: 3.12 mg/kg/injection, schedule: Q01DX011 (sc), vehicle: steriod suspending solution); 69 % of control (dose: 6.0 mg/kg/injection, schedule: Q01DX011 (sc), vehicle: steriod suspending solution); 79 % of control (dose: 6.25 mg/kg/injection, schedule: Q01DX011 (sc), vehicle: steriod suspending solution); 36 % of control and 56 % of control (dose: 12.0 mg/kg/injection, schedule: Q01DX011 (sc), vehicle: steriod suspending solution); 79 % of control (dose: 12.5 mg/kg/injection, schedule: Q01DX011 (sc), vehicle: steriod suspending solution). For the same molecule, the T/C is, setting by setting: (dose: 25.0 mg/kg/injection, schedule: Q01DX011 (sc), vehicle: steriod suspending solution) 36 % of control and 47 % of control and 58 % of control; (dose: 50.0 mg/kg/injection, schedule: Q01DX011 (sc), vehicle: steriod suspending solution) 33 % of control and 39 % of control; (dose: 51.0 mg/kg/injection, schedule: Q01DX011 (sc), vehicle: steriod suspending solution) 21 % of control; (dose: 75.0 mg/kg/injection, schedule: Q01DX011 (sc), vehicle: steriod suspending solution) 21 % of control; (dose: 100.0 mg/kg/injection, schedule: Q01DX011 (sc), vehicle: steriod suspending solution) 9 % of control and 16 % of control and 22 % of control; (dose: 200.0 mg/kg/injection, schedule: Q01DX011 (sc), vehicle: steriod suspending solution) 6 % of control and 14 % of control.

`CCCCCCCCCCCCCCCCCCNC`: the T/C (dose: 14.0 mg/kg/injection, schedule: Q01DX011 (ip), vehicle: carboxymethylcellulose (CMC)) was 77 % of control.

Take `CC(/C=N\N=C(N)N)=N/N=C(N)N`: the T/C is 84 % of control (dose: 5.75 mg/kg/injection, schedule: Q01DX011 (ip), vehicle: carboxymethylcellulose (CMC)); 77 % of control (dose: 7.62 mg/kg/injection, schedule: Q01DX011 (ip), vehicle: carboxymethylcellulose (CMC)); 78 % of control (dose: 11.5 mg/kg/injection, schedule: Q01DX011 (ip), vehicle: carboxymethylcellulose (CMC)); 71 % of control (dose: 15.24 mg/kg/injection, schedule: Q01DX011 (ip), vehicle: carboxymethylcellulose (CMC)); 70 % of control and 86 % of control (dose: 18.4 mg/kg/injection, schedule: Q01DX011 (ip), vehicle: carboxymethylcellulose (CMC)); 93 % of control and 100 % of control and 80 % of control (dose: 23.0 mg/kg/injection, schedule: Q01DX011 (ip), vehicle: carboxymethylcellulose (CMC)). Also, the T/C is 42 % of control (dose: 30.48 mg/kg/injection, schedule: Q01DX011 (ip), vehicle: carboxymethylcellulose (CMC)); 29 % of control and 45 % of control and 51 % of control (dose: 46.0 mg/kg/injection, schedule: Q01DX011 (ip), vehicle: carboxymethylcellulose (CMC)); 35 % of control (dose: 60.96 mg/kg/injection, schedule: Q01DX011 (ip), vehicle: carboxymethylcellulose (CMC)).

In the case of `Nc1nc(SCc2ccccc2Cl)c2ncn(C3OC(CO)C(O)C3O)c2n1` (stereo not given), the T/C reads like this: (dose: 0.85 mg/kg/injection, schedule: Q01DX011 (ip), vehicle: methylcellulose (MC)) 69 % of control; (dose: 1.7 mg/kg/injection, schedule: Q01DX011 (ip), vehicle: methylcellulose (MC)) 22 % of control; (dose: 3.4 mg/kg/injection, schedule: Q01DX011 (ip), vehicle: methylcellulose (MC)) 26 % of control; (dose: 6.75 mg/kg/injection, schedule: Q01DX011 (ip), vehicle: methylcellulose (MC)) 4 % of control.

Take `Nc1nc(SCc2ccccc2[N+](=O)[O-])c2ncn(C3OC(CO)C(O)C3O)c2n1` (stereo not given): the T/C (dose: 12.5 mg/kg/injection, schedule: Q01DX011 (ip), vehicle: methylcellulose (MC)) was 21 % of control; the T/C (dose: 25.0 mg/kg/injection, schedule: Q01DX011 (ip), vehicle: methylcellulose (MC)) is 7 % of control; the T/C (dose: 50.0 mg/kg/injection, schedule: Q01DX011 (ip), vehicle: methylcellulose (MC)) was 2 % of control.

As for `CC(=O)Nc1cc2c(cc1Br)-c1ccccc1C2O` (stereo not given), the T/C is, setting by setting: (dose: 35.0 mg/kg/injection, schedule: Q01DX011 (ip), vehicle: saline) 43 % of control; (dose: 75.0 mg/kg/injection, schedule: Q01DX011 (ip), vehicle: saline) 52 % of control; (dose: 155.0 mg/kg/injection, schedule: Q01DX011 (ip), vehicle: saline) 38 % of control; (dose: 210.0 mg/kg/injection, schedule: Q01DX011 (ip), vehicle: saline) 23 % of control.

Regarding `Cn1c(=O)c2c(n(C)c1=O)[n+]([O-])c([N+]1([O-])CCOCC1)n2C`, the T/C runs as follows: (dose: 30.0 mg/kg/injection, schedule: Q01DX011 (ip), vehicle: methylcellulose (MC)) 91 % of control; (dose: 60.0 mg/kg/injection, schedule: Q01DX011 (ip), vehicle: methylcellulose (MC)) 100 % of control; (dose: 120.0 mg/kg/injection, schedule: Q01DX011 (ip), vehicle: methylcellulose (MC)) 95 % of control; (dose: 240.0 mg/kg/injection, schedule: Q01DX011 (ip), vehicle: methylcellulose (MC)) 95 % of control.

As to `N#[N+]c1nc2ncnc(N)c2[nH]1`, the T/C reads like this: (dose: 12.5 mg/kg/injection, schedule: Q01DX011 (ip), vehicle: saline) 101 % of control; (dose: 25.0 mg/kg/injection, schedule: Q01DX011 (ip), vehicle: saline) 70 % of control.

As to `CNc1nc(SCc2ccccc2)ncc1C`, the T/C reads like this: (dose: 31.0 mg/kg/injection, schedule: Q01DX011 (ip), vehicle: methylcellulose (MC)) 60 % of control; (dose: 125.0 mg/kg/injection, schedule: Q01DX011 (ip), vehicle: methylcellulose (MC)) 82 % of control; (dose: 250.0 mg/kg/injection, schedule: Q01DX011 (ip), vehicle: methylcellulose (MC)) 52 % of control.

As for `Nc1nc(N)c2[nH]cnc2n1`, the T/C was 94 % of control (dose: 17.49 mg/kg/injection, schedule: Q01DX011 (ip), vehicle: carboxymethylcellulose (CMC)); 114 % of control (dose: 17.62 mg/kg/injection, schedule: Q01DX011 (ip), vehicle: carboxymethylcellulose (CMC)); 93 % of control (dose: 34.98 mg/kg/injection, schedule: Q01DX011 (ip), vehicle: carboxymethylcellulose (CMC)); 91 % of control (dose: 35.25 mg/kg/injection, schedule: Q01DX011 (ip), vehicle: carboxymethylcellulose (CMC)); 103 % of control (dose: 69.95 mg/kg/injection, schedule: Q01DX011 (ip), vehicle: carboxymethylcellulose (CMC)); 108 % of control (dose: 70.5 mg/kg/injection, schedule: Q01DX011 (ip), vehicle: carboxymethylcellulose (CMC)). For the same molecule, under “dose: 141.0 mg/kg/injection, schedule: Q01DX011 (ip), vehicle: carboxymethylcellulose (CMC)”, the T/C was 47 % of control.

As for `Nc1ncnc2c1nc(Br)n2C1OC(CO)C(O)C1O` (stereo not given), the T/C by setting is: (dose: 30.0 mg/kg/injection, schedule: Q01DX011 (ip), vehicle: carboxymethylcellulose (CMC)) 117 % of control; (dose: 120.0 mg/kg/injection, schedule: Q01DX011 (ip), vehicle: carboxymethylcellulose (CMC)) 109 % of control.

Take `CC12CCC3C(CCC4CC=CCC43C)C1CCC2=O` (stereo not given): the T/C is, setting by setting: (dose: 62.55 mg/kg/injection, schedule: Q01DX011 (sc), vehicle: steriod suspending solution) 90 % of control; (dose: 125.0 mg/kg/injection, schedule: Q01DX011 (sc), vehicle: steriod suspending solution) 99 % of control; (dose: 250.0 mg/kg/injection, schedule: Q01DX011 (sc), vehicle: steriod suspending solution) 60 % of control; (dose: 500.0 mg/kg/injection, schedule: Q01DX011 (sc), vehicle: steriod suspending solution) 84 % of control.
